Experimental data: patent publication US20030088061A1, “Materials and methods to modulate ligand binding/enzymatic activity of alpha/beta proteins containing an allosteric regulatory site” (priority 2000, published 2003)
Where two headings read alike, the source gives them in different places.

Target: T1, αEβ7 (Homo sapiens, UniProt P26010+P38570)
T1 construct: DNA encoding full-length alpha E was identified as follows; expressed in transfected cells; host or cells: JY cells, plasmid pMHneo/aE
T1 sequence (P38570 19-1179): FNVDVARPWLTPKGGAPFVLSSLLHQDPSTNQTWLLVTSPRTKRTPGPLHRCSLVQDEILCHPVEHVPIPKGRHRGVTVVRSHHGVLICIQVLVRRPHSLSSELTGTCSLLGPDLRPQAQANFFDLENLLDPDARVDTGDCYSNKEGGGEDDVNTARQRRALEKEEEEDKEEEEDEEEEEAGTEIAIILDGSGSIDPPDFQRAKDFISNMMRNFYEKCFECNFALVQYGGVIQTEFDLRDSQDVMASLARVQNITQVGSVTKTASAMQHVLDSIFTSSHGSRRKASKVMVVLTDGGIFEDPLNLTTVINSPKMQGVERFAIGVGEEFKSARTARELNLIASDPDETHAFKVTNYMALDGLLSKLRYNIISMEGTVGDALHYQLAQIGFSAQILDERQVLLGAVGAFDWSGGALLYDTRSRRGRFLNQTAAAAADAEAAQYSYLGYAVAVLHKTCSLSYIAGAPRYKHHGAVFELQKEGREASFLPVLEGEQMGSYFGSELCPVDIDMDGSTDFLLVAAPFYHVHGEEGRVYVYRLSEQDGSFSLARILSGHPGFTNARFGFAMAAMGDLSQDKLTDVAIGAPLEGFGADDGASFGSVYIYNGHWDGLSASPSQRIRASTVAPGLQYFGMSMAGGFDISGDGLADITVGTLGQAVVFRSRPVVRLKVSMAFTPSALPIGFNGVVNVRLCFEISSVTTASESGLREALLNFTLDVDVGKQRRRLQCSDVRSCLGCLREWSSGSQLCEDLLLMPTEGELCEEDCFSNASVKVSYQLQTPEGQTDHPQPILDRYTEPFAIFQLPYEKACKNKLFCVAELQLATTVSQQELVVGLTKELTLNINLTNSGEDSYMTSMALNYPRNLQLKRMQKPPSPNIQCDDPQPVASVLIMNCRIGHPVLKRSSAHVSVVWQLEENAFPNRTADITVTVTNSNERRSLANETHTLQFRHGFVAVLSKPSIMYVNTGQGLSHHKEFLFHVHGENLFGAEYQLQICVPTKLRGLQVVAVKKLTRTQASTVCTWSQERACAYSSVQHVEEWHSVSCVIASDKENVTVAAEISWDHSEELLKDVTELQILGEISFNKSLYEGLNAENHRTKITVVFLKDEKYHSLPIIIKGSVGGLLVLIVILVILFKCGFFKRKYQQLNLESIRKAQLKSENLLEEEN
T1 sequence (P26010 20-798 partner): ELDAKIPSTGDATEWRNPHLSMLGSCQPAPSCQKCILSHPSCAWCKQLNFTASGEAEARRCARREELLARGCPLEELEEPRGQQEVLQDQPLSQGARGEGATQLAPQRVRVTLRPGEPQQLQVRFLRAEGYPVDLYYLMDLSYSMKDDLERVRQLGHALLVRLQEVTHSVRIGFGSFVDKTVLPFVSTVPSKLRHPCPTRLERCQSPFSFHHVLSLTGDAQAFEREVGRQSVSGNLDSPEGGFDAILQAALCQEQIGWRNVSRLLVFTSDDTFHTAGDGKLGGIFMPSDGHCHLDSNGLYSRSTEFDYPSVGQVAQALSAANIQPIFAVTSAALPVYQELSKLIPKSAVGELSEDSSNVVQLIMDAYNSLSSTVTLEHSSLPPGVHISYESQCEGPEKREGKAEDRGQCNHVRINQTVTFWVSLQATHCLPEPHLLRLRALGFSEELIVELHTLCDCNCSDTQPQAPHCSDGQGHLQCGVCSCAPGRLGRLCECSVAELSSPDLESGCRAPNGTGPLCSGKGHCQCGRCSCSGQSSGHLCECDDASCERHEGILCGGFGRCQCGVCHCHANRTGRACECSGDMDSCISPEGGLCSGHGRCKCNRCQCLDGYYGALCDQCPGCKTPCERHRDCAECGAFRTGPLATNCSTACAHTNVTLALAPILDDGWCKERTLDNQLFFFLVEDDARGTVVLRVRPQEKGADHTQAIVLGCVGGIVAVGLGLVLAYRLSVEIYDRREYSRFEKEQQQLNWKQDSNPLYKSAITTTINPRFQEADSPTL
Test: JY/aE+ cell adhesion to E-cadherin/Ig
Format: cell-based
Experimental: Adhesion media (350 μl) (RPMI 1640 containing penicillin and streptomycin, L-glutamine, NaPy, and 5% FBS) was aliquotted into each well in rows A, C, E, G of a deepwell 96-well titer plate, 2.0 ml capacity (Beckman Instruments, Inc., Fullerton, Calif.) in columns 1-11. All compounds to be screened were dissolved in DMSO to a final concentration of 10 mM. Compounds were stored at −20° C., and thawed on the day of use in a 37° C. incubator. Each compound (2.1 μl) was pipetted into a single well in columns 3-11, rows A, C, E, and G in the deepwell titer plate. To wells not containing compound (A1 & A2, C1 & C2, E1 & E2, G1 & G2), 2.1 μl DMSO was added. An anti-β7 monoclonal antibody, FIB504 (ATCC, Rockville, Md.), which blocks αEβ7 binding activity, was added to wells C2 and G2 at a concentration of 7.5 μg/ml. Each deepwell titer plate was covered to prevent dessication and stored in a 37° C. incubator until ready for use.
Adhesion assays were performed in 96-well Immunlon 4 plates (Dynex Technologies, Inc., Chantilly, Va.) as follows. Each well was coated with 50 μl E-cadherin/Ig (3.0 μg/ml) in D-PBS. Control wells were coated with capture antibody FIB504, to quantitate 100% input cell binding, or coating buffer alone to determine background binding. Following an overnight incubation at 4° C., the plates were washed three times with 200 μl/well D-PBS and blocked with 1% BSA in D-PBS for at least 1 hour. The BSA solution was removed and 100 μl of adhesion media (RPMI 1640 containing penicillin and stretomycin, L-glutamine, sodium pyruvate, 0.1% BSA, and 60 ng/ml PMA), was added to rows B through G, columns 1 through 11.
At this point, 100 μl adhesion media containing a test compound at a concentration of 60 μM, was transferred from the deepwell 96-well titer plate, in triplicate, to the E-cadherin/Ig coated adhesion plate. The outer rows were filled with 300 μl of D-PBS. These plates were transferred to a humidified 37° C. incubator with an atmosphere of 5% CO2.
The adhesion assay was initiated by addition of 100 μl of the JY/aE^+ cell suspension to each well of the E-cadherin-coated plate. The final volume in each well was 300 μl adhesion media containing […], PMA (final concentration 20 ng/ml), and the test compound (final concentration 20 μM). The plates were incubated at 37° C. for 30 min. Each compound was tested in triplicate.
Adherent cells were fixed by the addition of 50 μl of a 14% glutaraldehyde solution in D-PBS. Plates were washed with water, stained with 100 μl/well 0.5% crystal violet (Sigma Corp., St. Louis, Mo.) solution for 5 min. Three hundred microliters/well of 70% ethanol was added, and adherent cells were quantitated by determining absorbance at 570 nm. Percentage of cell binding was determined by using the mean values for each triplicate in a given assay in the following formula. [formula]
During the initial screening of test compounds, each chemical entity was tested in cell-based adhesion assays at a fixed concentration of 20 μM. Those compounds that blocked JY/αEβ7-dependent adhesion to E-cadherin/Ig by 50% or more were subsequently retested at multiple concentrations to determine the inhibitory concentration at which cell binding is reduced by 50%, i.e., the IC50 value.
For each IC50 assay, 50 μl of the ligand diluted in 50 mM bicarbonate buffer (pH 9.6) was dispensed per well of an Immulon-4 plate. A single plate was used to test two different ligands, each in triplicate, The coating concentration for the various ligands was as follows: VCAM-1/Ig at 2.0 μg/ml; ICAM-1/Ig at 5.0 μg/ml; vitronectin at 0.5 μg/ml; MAdCAM-1/Ig at 3.0 μg/ml, and iC3b at 5.0 μg/ml. The capture antibody, e.g. anti-CD18 monoclonal antibody TS1/22, was added at a concentration of 10 μg/ml in 50 μl/well. Ligand-coated plates were covered and stored overnight at 4° C. The following day, the contents of each well was decanted, and each plate was washed three times with 200 μl/well D-PBS. […]

[1] = PMA-treated JY cells, read-out: E-cadher αEβ7 IC50
[2] = reproducible inhibitory activity on re-analysis, read-out: IC50, inhibition of JY/aE+ binding to E-cadherin

| Compound | IC50 [1] [µM] | IC50 [2] [µM] |
| --- | --- | --- |
| CC(=O)Oc1ccccc1C(=O)n1c(-c2ccccc2)cc2ccccc21 [Cmpd D] | 3 | < 10 |
| O=C(NCc1cccnc1)c1ccccc1C(=O)Nc1sc2ccccc2c1Cl [Cmpd K] | 3 | < 10 |
| Nc1ccc(Sc2ccc(NC(=O)CCc3ccccc3)cc2)c(Cl)c1 [Cmpd W] | 5 | < 10 |
| CC(CN(C)C)NCc1ccccc1Sc1ccc(C(C)(C)C)cc1 (centres unmarked) [Cmpd Z] | 3 | < 10 |
